What was measured:
RNA = experiment: Interaction with RNA by UV/Vis titration; assay type: binding
SARS-COV-2 = experiment: Antiviral effect: SARS-COV-2 RNA production in infected Vero cells (RT-qPCR of E-gene); assay type: cell-based; settings: Vero in vitro model; 0-10 μM; 24 and 48 hours
Experimental: The cells in question (Vero cell line from African green monkey kidney; 1.5×10^5 cells per well) were infected with a SARS-COV-2 isolate provided by the Bioconservation Section of Techonin. The infectious inoculum contained 2.38×10^7 copies of the SARS-COV-2 E-gene. After 1 h inoculation, cells were supplemented with 1 ml of Dulbecco's modified Eagle's medium containing 2% fetal bovine serum (2% FBS-DMEM) and increasing concentrations (0-10 μM) of tryptanthrin derivatives 1 (PAA-TSC) and 5 (T8H-TSC), resp. After 24 and 48 hours of incubation, the growth of SARS-COV-2 was characterized in an aliquot of the culture supernatant by one-step RT-qPCR.
Viral RNA was isolated from 200 μl culture supernatant using magnetic beads. SARS-CoV-2 RNA was quantified by amplifying the E-gene of SARS-COV-2 (Generi Biotech) using the SensiFast Probe One-Step Kit (BioLine) and Light Cycler 480 II (Roche) using absolute quantification and calibration curve.

[1] = Binding constant with Fe^2+ ions by UV/Vis titration
Experimental: (§1) The association of tryptanthrin derivatives with ferrous and ferric ions was studied by UV/Vis spectroscopy in aqueous solution (water/DMSO, 99:1, v/v). […] Association constants (K) were calculated from absorbance changes (AA) in the spectral maximum of the derivative and in the spectral maximum of its complexes with Fe^2+/3+ ions by regression analysis. The concentration of tryptanthrin derivatives was 100 μM. The concentration of Fe^2+ and Fe^3+ ions fluctuated in the range of 0-5 mM. UV/Vis spectra were measured with a Shimadzu spectrophotometer in the range 220-900 nm with a step of 1 nm in a 1 cm plastic cuvette at a scanning speed of 300 nm.min^-1. The effect of different concentrations of Fe ions on the absorbance of substance 1 (PAA-TSC) is shown in FIGS. 5 and 6; that for substance 5 […]-TSC) in FIGS. 7 and 8.

[2] = Binding constant with Fe^3+ ions by UV/Vis titration
Experimental: as §1

DNA from salmon sperm = experiment: Interaction with DNA by UV/Vis titration; assay type: binding
[3] = Interaction of tryptanthrin derivatives with transition metal ions (UV/Vis spectroscopy); assay type: binding; settings: receptor 100 μM, ion 5000 μM
Experimental: First, the interaction of tryptanthrin derivatives 1 and 5 with metal ions was studied using UV/Vis spectroscopy. The receptor concentration was 100 μM and the ion concentration was 5000 μM.

[4] = stoichiometry (ion:ligand) 1:1, water/DMSO 99:1, derivative 100 μM
[5] = stoichiometry (NK:ligand) 1:2, phosphate buffer pH 7.00

CC(CC1(O)c2ccccc2-n2c1nc1ccccc1c2=O)=NNC(N)=S (mixture of isomers) [derivative 1]
Log (K) association constant (RNA; stoichiometry (NK:ligand) 2:1, phosphate buffer pH 7.00): 8.7
inhibition of virus particle / CoV-2 RNA production (SARS-COV-2): inhibition of virus particle production
Log (K) association constant [1, 4]: 1.5
Log (K) association constant [2, 4]: 6.0
Log (K) association constant ([2]; stoichiometry (ion:ligand) 1:2, water/DMSO 99:1, derivative 100 μM): 10.2
Log (K) association constant (DNA from salmon sperm; stoichiometry (NK:ligand) 1:1, phosphate buffer pH 7.00): 7.4
absorbance changes after addition of metal ions (selectivity for Fe^2+/Fe^3+) [3]: significant absorbance changes were observed only in the case of ferrous and ferric ions

NC(=S)NN=C1c2ccccc2-n2c1nc1ccccc1c2=O [derivative 5]
Log (K) association constant (RNA; [5]): 7.3
inhibition of virus particle / CoV-2 RNA production (SARS-COV-2): inhibition of viral particle production
Log (K) association constant [1, 4]: 4.9
Log (K) association constant ([1]; stoichiometry (ion:ligand) 2:1, water/DMSO 99:1, derivative 100 μM): 7.1
Log (K) association constant (DNA from salmon sperm; [5]): 6.0
absorbance changes after addition of metal ions (selectivity for Fe^2+/Fe^3+) [3]: significant absorbance changes were observed only in the case of ferrous and ferric ions

— patent publication US20250171449A1, “TRYPTANTHRIN DERIVATIVES WITH THIOSEMICARBAZONE SUBSTITUTION AND USE THEREOF” (UNIVERZITA KARLOVA, priority 2022, published 2025)
